EP0537993A1, “Nicotinic activity of a series of arecolones and isoarecolones” (ELI LILLY AND COMPANY, priority 1991, dated 1993)
Where a name gives a salt, the structure may show the parent alone.

Experiments:
[1] = biological target: nicotinic receptors (Rattus norvegicus, UniProt P09483+P12390); assay: [3H]N-methyl-carbamyl choline ([3H]MCC) binding to rat brain cortical membranes; details: selectivity for nicotinic over muscarinic receptors
Procedure: Binding to rat brain nicotinic receptors was performed using the method of Abood and Grassi. Abood, L.E. et al., Biochem. Pharmacol. 35:4199-4202 (1987). Frozen rat brain cortices (Pel-Freez Biologicals, Roger, AR) were homogenized using a Polytron (Binkmann PT-10; setting 6 for 15 sec) in 30 volumes of buffer (50 mM tris, 120 mM sodium chloride, 5 mM potassium chloride, 2 mM calcium chloride, 1 mM magnesium chloride, pH 7.3 at 4°C). The homogenate was centrifuged at 1,000 xg for 10 min. (Sorval RC-5B; SA600 rotor). The supernatant was then centrifuged at 40,000 xg for 20 min. The final pellet was resuspended in buffer at a concentration of 12 vol./gram wet weight of tissue. Final protein concentrations for each assay were determined using the Lowry et al. method. Lowry, O.H. et al., J. Biol. Chem. 193:265-275 (1951).
[³H]N-Methyl-carbamyl choline iodide ([³H]MCC) binding to rat cortices was measured by filtration. Compounds dissolved in distilled water at concentrations of 1 nM to 1 mM, were incubated with [³H]MCC (1 nM), membrane aliquots (approximately 1.5 mg./ml. protein) and buffer, in a final volume of 0.5 ml. […] Nonspecific [³H]MCC binding was determined in the presence of 10 mM nicotine. […]
Radioactivity bound was determined after a period of equilibration (at least 5 hr) in Beckman Ready Protein Scintillation Cocktail using a Beckman LS5000 TA counter with an efficiency of 43%. […]

[2] = biological target: muscarinic receptors; assay: Inhibition of 3H-oxotremorine-M binding to hippocampal membranes; details: [3H]oxotremorine ([3H]OXO) binding, muscarinic receptor affinity, rat membranes
Procedure: The hippocampus from male Sprague-Dawley rats was homogenized in 10 volumes of 0.32 M sucrose, centrifuged at 1000 x g for 10 min, and the supernatant was centrifuged at 17,000 x g for 20 min. The synaptosoma! fraction (P₂) pellet was homogenized in 50 volumes of 20 mM Tris-Cl buffer, pH 7.4, and centrifuged at 50,000 x g for 10 min. After resuspension in buffer, the suspension was preincubated for 30 min at 4 °C, and centrifuged again. The pellet was resuspended in 3 volumes of buffer and frozen at -70 °C until used.
For oxotremorine-M binding, the homogenates were incubated at 25 °C for 15 min. After incubation, the homogenates were filtered through Whatman GF/C filters with vacuum. The filters were rinsed 3X with 1 mL of cold buffer and placed in scintillation vials containing Ready Protein+ (Beckman) scintillation fluid. Radioactivity trapped on the filters was determined by liquid scintillation spectrometry. Non specific binding was determined using 1 µM atropine.
The concentration of compound required to inhibit binding 50% (IC₅₀) was calculated using the ALLFIT program.

[3] = tested on: rats; details: cited from earlier work
[4] = tested on: nicotinic and muscarinic receptors; details: cited from earlier work

Sequence of nicotinic receptors (P09483 31-630): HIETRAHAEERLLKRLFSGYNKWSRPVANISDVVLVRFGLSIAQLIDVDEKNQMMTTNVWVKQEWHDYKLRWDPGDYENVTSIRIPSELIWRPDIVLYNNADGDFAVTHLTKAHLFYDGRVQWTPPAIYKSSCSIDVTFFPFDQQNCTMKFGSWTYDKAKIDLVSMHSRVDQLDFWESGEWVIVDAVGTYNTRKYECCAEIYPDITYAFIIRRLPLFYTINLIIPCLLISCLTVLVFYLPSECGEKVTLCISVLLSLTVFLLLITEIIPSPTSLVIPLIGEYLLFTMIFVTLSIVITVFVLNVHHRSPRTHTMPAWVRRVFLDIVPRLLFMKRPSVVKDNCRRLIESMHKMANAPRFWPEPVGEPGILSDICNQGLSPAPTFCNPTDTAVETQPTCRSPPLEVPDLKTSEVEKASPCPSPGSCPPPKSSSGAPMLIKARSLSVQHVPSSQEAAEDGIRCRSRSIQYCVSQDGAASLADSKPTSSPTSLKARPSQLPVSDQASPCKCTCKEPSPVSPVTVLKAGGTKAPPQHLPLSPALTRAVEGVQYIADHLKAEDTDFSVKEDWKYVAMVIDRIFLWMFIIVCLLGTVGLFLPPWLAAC
Sequence of nicotinic receptors (P12390 25-500): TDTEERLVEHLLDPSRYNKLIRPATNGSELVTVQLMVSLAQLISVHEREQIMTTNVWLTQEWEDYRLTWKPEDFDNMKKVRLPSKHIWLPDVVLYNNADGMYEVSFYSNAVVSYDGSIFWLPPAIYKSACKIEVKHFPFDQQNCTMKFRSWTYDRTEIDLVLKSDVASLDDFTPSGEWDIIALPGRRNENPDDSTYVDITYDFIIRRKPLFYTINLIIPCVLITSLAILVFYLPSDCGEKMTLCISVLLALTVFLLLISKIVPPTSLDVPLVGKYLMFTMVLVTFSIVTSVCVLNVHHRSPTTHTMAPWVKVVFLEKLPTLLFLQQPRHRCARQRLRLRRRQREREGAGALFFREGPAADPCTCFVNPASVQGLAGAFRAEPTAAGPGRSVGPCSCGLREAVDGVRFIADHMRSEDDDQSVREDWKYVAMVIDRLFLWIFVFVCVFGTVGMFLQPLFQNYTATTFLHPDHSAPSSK

| Compound | Ki Ratio OXO/MCC [1] | Ki [2] | nicotine-like discriminative stimulus effects [3] | agonist which binds to nicotinic and muscarinic receptors [4] |
| --- | --- | --- | --- | --- |
| CN1CC=C(C(=O)C(C)(C)C)CC1 [Example 12, 1-(1,2,3,6-Tetrahydro-1-methyl-4-pyridinyl)-2,2-dimethylpropanone] | 110 | 6.25 µM |  |  |
| CC(=O)C1=CCN(C)CC1 [isoarecolone HCl] |  |  | produce nicotine-like discriminative stimulus effects |  |
| CCC(C)C(=O)C1=CCN(C)CC1 (stereo not drawn) [Example 11, 1-(1,2,3.6-Tetrahydro-1-methyl-4-pyridinyl)-2-methylbutanone] |  | 4.79 µM |  |  |
| 1-methyl-4-acetyl-1,2,3,6-tetrahydropyridine [isoarecolone methiodide] |  |  | produce nicotine-like discriminative stimulus effects | very potent agonist |
